Results from patent US9365541B2, “Compounds for use in the treatment of parasitic diseases” (IRBM—SCIENCE PARK S.P.A., priority 2012, dated 2016).

What was measured:
[1] = tested on: histone 4 acetylated lysine 8 (H4K8Ac); test: Histone hyperacetylation assay (Western blot H4K8Ac) in P. falciparum 3D7 infected erythrocytes; type: cell-based; settings: Plasmodium falciparum, Erythrocyte, 20 nM to 10 uM, 14-16 hours, read-out: estimated EC50 in the hyperacetylation assay
Method: FIG. 1. Hyperacetylation of P. falciparum histones. Plasmodium falciparum 3D7 infected erythrocytes (5-7% parasitemia) were cultured for 14-16 hours in vitro with increasing concentrations (6 nM to 3 uM) of (A): compound (S)-N-(7-(methylamino)-1-(5-(naphthalen-2-yl)-1H-imidazol-2-yl)-7-oxoheptyl)quinuclidine-4-carboxamide (Table 2, entry 126) or with vehicle (0.01% DMSO); increasing concentrations (20 nM to 10 uM) of (B): compound (S)-N-(1-(5-(4-(1H-pyrazol-5-yl)phenyl)-1H-imidazol-2-yl)-7-(methylamino)-7-oxoheptyl)thiazole-5-carboxamide (Table 2, entry 221; Example 4, D9). Beta-actin was used as loading control (see materials and methods). H4K8Ac: antibody directed against acetylated lysine 8 of histone 4. […]
(§1) The effect of test compounds on histone acetylation status was determined by incubating Plasmodium falciparum 3D7 infected erythrocytes or HeLa cells with different concentrations of drugs or vehicle (0.01% DMSO) alone. […] Supernatants were analyzed by 12% SDS-PAGE and transferred onto PVDF (Immun-Blot PVDF Membrane for Protein Blotting, BIORAD, Cat: No 162-0177) membranes. […]

[2] = tested on: histone 4 acetylated lysine 8 (H4K8Ac); test: Histone hyperacetylation assay (Western blot H4K8Ac) in HeLa cells; type: cell-based, human; settings: data not shown
Method: FIG. 2. Hyperacetylation of HeLa's histones. HeLa cells were incubated in vitro for 14-16 hours with increasing concentrations (49 nM to 25 uM) of compound (S)-N-(7-(methylamino)-1-(5-(naphthalen-2-yl)-1H-imidazol-2-yl)-7-oxoheptyl)quinuclidine-4-carboxamide (Table 2, entry 126) or were treated with vehicle (0.01% DMSO). Beta-actin was used as loading control (see materials and methods). H4K8Ac: antibody directed against acetylated lysine 8 of histone 4.
After result normalization using positive and negative controls, compound potency is determined by fitting the following equation: % inh=Ymin+(Ymax−Ymin)/(1+(X/EC50)^slope)) Where: • Ymin=minimum percentage effect • Ymax=maximum percentage effect • EC50=the concentration of the compound at which 50% effect is reached • Slope=the slope of the curve calculated at the EC50 Histone Hyperacetylation and Immunodetection of Altered Histone Modifications Assay
as §1, with “alone. Infected erythrocytes were collected at 14-16 hours post treatment and lysed in saponin (0.15%).” for “alone.”

Structure (SMILES): CNC(=O)CCCCC[C@H](NC(=O)c1cncs1)c1ncc(-c2ccc(-c3ccn[nH]3)cc2)[nH]1 [D9, (S)-N-(1-(5-(4-(1H-pyrazol-5-yl)phenyl)-1H-imidazol-2-yl)-7-(methylamino)-7-oxoheptyl)thiazole-5-carboxamide]
- EC50 [1]: 350 nM
- concentration up to which no change in histone acetylation was observed in HeLa cells [2]: > 10 µM
